Reference: patent US8148431B2, “Osteogenesis promoter containing β-cryptoxanthin as the active ingredient” (Kemin Health, L.C., priority 2002, dated 2012)
Marks after values point to notes of the source that are not given here.

How the values were obtained:
[1] = tested on: metaphysis tissue of the femur (cancellous bone); assay: Bone alkaline phosphatase activity in cultured femoral metaphysis tissue pieces; assay type: cell-based, Wistar male rats; settings: for Bone alkaline phosphatase activity: metaphysis tissue, mean ± SE
Method: (§1) The femurs were extracted from rats (Wistar male rats; 4 to 5 weeks old) (purchased from Japan SLC Co., Ltd. and fed with solid Oriental yeast (MF)) under anesthesia with ether under a germfree condition. The femurs were each washed with 0.25 M sucrose solution, and then divided into the diaphysis (cortical bone) and metaphysis (cancellous bone). The bone tissue pieces were cultured in a culture medium (Dulbecco's modified culture medium containing 5% of glucose; serum-free medium) containing. β-cryptoxanthin, etc. at […] in an incubator filled with 5% CO2-95% air for 48 hours. β-cryptoxanthin used was “β-cryptoxanthin” of Extrasynthase Co., cycloheximide used was “Cycloheximide” of Sigma Co. Ltd., β-carotene was “β-carotene” of Sigma ? , xanthine was “Xanthine” of Sigma Co, Ltd., parathormone was “Parathormone” of Sigma Co. Ltd. and prostaglandin E2 was “Prostaglandin E2” of Sigma Co. Ltd. In the control, only the culture medium was used without β-cryptoxanthin or the like.
(§2) The expression level of alkaline phosphatase, which is the most important enzyme for the acceleration of the calcification of bones, was examined. The tissue pieces cultured in the incubator were washed in 0.25 M sucrose solution, then pulverized in 3 ml of 65 mM barbital buffer (pH 7-4) and treated with ultrasonic waves. The resultant liquid was centrifuged. The supernatant, as the enzyme solution, was determined by a method of Walter ad Schutt in Method of Enzymatic Analysis, Vol. 1-2, p. 856, Academic Press, New York, 1965). Namely, this method was carried out as follows: p-nitrophenylphosphoric acid was used as the substrate. 0.05 ml of the enzyme solution was added to 2 ml of diethanolamine buffer (pH 9.8). After the incubation at 37° C. for 30 minutes, 10 ml of 0.05 N NaOH was added to the mixture. The absorbance (405 nm) was determined with a spectrophotometer to determine bone alkaline phosphatase activity of a bone remedy or a compound known to be effective for the bones.
The bone component-increasing effect of β-cryptoxanthin was examined. The diaphysis and metaphysis tissue of the femur was cultured in the above-described culture medium containing β-cryptoxanthin ([…]) for 48 hours. Calcium level in the bone tissue, alkaline phosphatase activity (enzyme for accelerating the bone calcification) and the amount of deoxyribonucleic acid (DNA; index of number of cells in the bone tissue) were determined by the same methods as in Example 1. In each test group, the determination vas conducted 6 to 8 times and the results were represented by the average value and the standard error. The significant difference was determined by Student's t-test. The result was compared with that of the control. When P value was not higher than 0.01 (**) or not higher than 0.05 (*), the results were statistically significant.

[2] = tested on: metaphysis tissue of the femur; assay: Bone resorption (PTH or prostaglandin E2): bone calcium level in cultured metaphysis tissue; assay type: cell-based, Wistar male rats
Method: as §1
Bone calcium level in the bone tissue was determined. After the culture in the incubator, the tissue pieces were washed with 0.25 M sucrose solution and dried and then the bone was weighed. Then concentrated nitric acid was added to the tissue pieces. After the incineration at 120° C. for 12 hours, the bone calcium level was determined with an atomic absorption photometer (“Perkin-Elmer 303” of Perkin-Elmer Co.).
The bone mineral dissolution-inhibiting effect of β-cryptoxanthin was examined. […] PTH also has a pathophysiologic role on the expression of osteoporosis caused by the aging. It is known that prostaglandin E2 also causes physiologic bone mineral dissolution. The diaphysis or metaphysis tissue of the femur was cultured in the presence of 10^−7 M PTH or 10^−5 M prostaglandin E2 for 48 hours and then calcium level in the bone tissue was determined. In another experiment, the culture was conducted in the same manner as that described above in the coexistence of them and β-cryptoxanthin (10^−8 M to 10^−6 M) and then calcium level in the bone tissue was determined. In each test group, the determination was conducted 6 to 8 times and the results were represented by the average value and the standard error. The significant difference was determined by Student's t-test. The result was compared with that of the control. When P value was not higher than 0.01 (*) as compared with the control or it is not higher than 0.1 (#) as compared with that of prostaglandin E2, the results were statistically significant.

[3] = tested on: rats, femoral diaphysis tissue; assay: Oral administration to rats: bone alkaline phosphatase activity in diaphysis tissue; assay type: in vivo, Wistar male rats; settings: for Bone alkaline phosphatase activity: diaphysis tissue
Method: as §2
(§3) A solution of β-cryptoxanthin in corn oil having one of three kinds of concentration (10, 25 and 50 μg/ml corn oil) was orally administered to rats (Wistar male rats; 4 to 5 weeks old) in an amount/100 g body weight with a probe once a day for 7 days. The rats were sacrificed 24 hours after the final administration. The femurs were excised. The muscles, etc. were taken out and each femur was divided into diaphysis and metaphysis to determine the bone components.
(§4) Tests were conducted to examine whether the bone components are increased by the oral administration of β-cryptoxanthin to rats or not. β-cryptoxanthin was administered for 7 days (10, 25 or 50 μg/100 g body weight/day) and then calcium level in the bone tissue, determination of alkaline phosphatase activity (enzyme for the acceleration of the calcification of bones) and the amount of deoxyribonucleic acid (DNA: index of the number of the cells in the bone tissue) were determined by the same methods as those in Example 1. In each test group, the determination was conducted 6 times and the results were represented by the average value and the standard error. The significant difference was determined by Student's t-test. The result was compared with that of the control. When P value was not higher than 0.01 (*) as compared with the control, the results were statistically significant.

[4] = tested on: rats, femoral metaphysis tissue; assay: Oral administration to rats: bone DNA level in metaphysis tissue; assay type: in vivo, Wistar male rats; settings: for Bone DNA level: metaphysis tissue
Method: DNA level was determined as an index of the number of cells in the bone tissue. After the culture in an incubator, the tissue pieces were washed with 0.25 M sucrose solution and then the wet weight of them was determined. They were pulverized in 4 ml of 0.1 N NaOH. After the osmosis at 4° C. for 24 hours, the liquid mixture was centrifuged. The supernatant was taken as the sample and determined by a method of Ceriotti et al. (J. Biol. Chem., 241; 34-77, 1951). Namely, 1 ml of concentrated hydrochloric acid and 1 ml of 0.04% indole solution were added to 2 ml of the sample and then the resultant mixture was heated to 100° C. in boiling water. After quenching followed by the extraction with 4 ml of chloroform, the chloroform layer was taken to determine bone DNA level with a spectrophotometer (490 nm).
as §3, §4

[5] = 10, 25 or 50 μg/100 g body weight/day, 7 days
[6] = oral 10 μg/100 g body weight/day for 7 days
[7] = oral 25 μg/100 g body weight/day for 7 days
[8] = oral 50 μg/100 g body weight/day for 7 days

For `CC1=C(/C=C/C(C)=C/C=C/C(C)=C/C=C/C=C(C)/C=C/C=C(C)/C=C/C2=C(C)C[C@@H](O)CC2(C)C)C(C)(C)CCC1` [β-cryptoxanthin], the “Effect on the enzymatic (alkaline phosphatase) activity in the metaphysis (in words)” value ([1]; 10^−7 to 10^−4 M (so in the source), 48 h culture, vs control) was “increase”, the “Bone alkaline phosphatase activity” value ([1]; Table 2 (protein synthesis inhibitor experiment), 10^−6 M (each agent), n=6) was 1168.2 ± 30.1* nmol/min/mg protein and the “Bone alkaline phosphatase activity” value ([1]; 10^−5 M, 48 h culture) was 1229.5 ± 40.9** nmol/min/mg protein. The “Bone alkaline phosphatase activity” value ([1]; 10^−6 M, 48 h culture) was 1150.9 ± 26.8** nmol/min/mg protein, the “Bone alkaline phosphatase activity” value ([1]; 10^−7 M, 48 h culture) was 945.2 ± 5.4** nmol/min/mg protein and the “Bone alkaline phosphatase activity” value ([1]; 10^−8 M, 48 h culture) was 918.4 ± 4.3 nmol/min/mg protein. The “Bone alkaline phosphatase activity in metaphysis tissue increased by β-cryptoxanthin: change in the presence of cycloheximide (in words)” value ([1]; β-cryptoxanthin 10^−6 M with cycloheximide) was “significantly lowered”, the “Control of prostaglandin E2-caused reduction of calcium level in the bone tissue (in words)” value ([2]; metaphysis tissue, β-cryptoxanthin 10^−5 to 10^−6 M (so in the source) with prostaglandin E2 10^−5 M) was “completely controlled” and the “Control of PTH-caused reduction of calcium level in the metaphysis tissue (in words)” value ([2]; β-cryptoxanthin 10^−8 to 10^−6 M in the presence of PTH) was “significantly controlled”. For the same compound, the “Effect on alkali phosphatase activity in the diaphysis tissue after oral administration (in words)” value [3, 5] was “significantly increased”, the “Bone alkaline phosphatase activity” value [3, 6] was 2.38 ± 0.019* μmol/min/mg protein and the “Bone alkaline phosphatase activity” value [3, 7] was 2.35 ± 0.021* μmol/min/mg protein. For the same compound, the “Bone alkaline phosphatase activity” value [3, 8] was 1.85 ± 0.025* μmol/min/mg protein, the “Effect on DNA in the bone tissue, metaphysis, after oral administration (in words)” value [4, 5] was “significantly increased” and the “Bone DNA level” value [4, 6] was 4.10 ± 0.24* mg/g bone wet weight. For the same compound, the “Bone DNA level” value [4, 7] was 4.25 ± 0.21* mg/g bone wet weight and the “Bone DNA level” value [4, 8] was 4.01 ± 0.18* mg/g bone wet weight.
